Test results from article PMC6862250, “Lipophilicity Determination of Quaternary (Fluoro)Quinolones by Chromatographic and Theoretical Approaches” (International Journal of Molecular Sciences, 2019).

Columns and labels:
Type in all cases: physicochemical
[1] = RP-TLC lipophilicity, silica gel C18, methanol-water; conditions: for C 0: RP-TLC silica gel C18, C0 = −RM^0/b; for PC1: RP-TLC silica gel C18, first principal component of RM values, contains 86.92% of information; for mRM: RP-TLC silica gel C18, mean value of RM; for R M ^0: RP-TLC silica gel C18, methanol-water 40 to 70% (v/v), intercept of Soczewiński–Wachtmeister equation; for b: RP-TLC silica gel C18, slope of Soczewiński–Wachtmeister equation
Protocol: (§1) The ready-to-use TLC glass plates covered by octadecyl(C18)- and octyl(C8)-modified TLC silica layers were purchased from Merck (Darmstadt, Germany). Stock solutions (5 µL) of the analytes were spotted manually on the plates with the use of a micropipette from Brand (Wertheim, Germany). The mobile phases were prepared by mixing appropriate volumes of pure organic solvents and water (in step gradient by 10% (v/v)), in the following proportions: (a) methanol–water ranging from 30 to 70% (v/v), in the case of C8-bonded silica gel stationary phase; and (b) methanol–water ranging from 40 to 70% (v/v), in the case of C18-bonded silica gel stationary phase.
(§2) Before analysis, the chromatographic chamber (Twin Trough Chambers from CAMAG Philadelphia, USA) was saturated for 20 min. All TLC experiments were performed at room temperature (22 ± 2 °C). Chromatograms were developed using the ascending technique to a distance of 8 cm. The investigated substances were visualized under UV light at λ = 366 nm by CAMAG UV Lamp 4 and the Viewing Box 4 (Philadelphia, USA). […] The obtained retardation factors (RF) were collected in the Supplementary data sheets. The retention parameter, RM, was calculated for each compound according to the Bate-Smith and Westall formula: (7) RM=log(1/RF−1) and listed in Table S2. Next, the Soczewiński–Wachtmeister’s equation: RM = RM^0 + bC(8) was used in order to determine the basic lipophilic RP-TLC parameter RM^0 as well as commonly used hydrophobic constants m. Soczewiński–Wachtmeister’s equation presented a linear relationship between concentration of the organic solvent in mobile phase (C) and RM value. Moreover, mean value of RM was used for lipophilicity assessments.
(§3) Furthermore, C0 RP-TLC lipophilicity parameter, introduced by Bieganowska, has been calculated according to the formula:(9) C0=−RM^0/b.
(§4) The C0 parameter corresponds to the parameter φ0, previously proposed for the HPLC. This parameter relates to the concentration of the organic component in the mobile phase for which the distribution of the analyzed substance between the mobile and stationary phase is equal (1:1).
(§5) Also, the principal component analysis (PCA) was applied in order to extract information regarding the lipophilicity of solutes and formulate them as the first principal component (PC1). Calculation data matrixes included RM values of solutes for each modifier concentration in the mobile phase.

[2] = RP-TLC lipophilicity, silica gel C8, methanol-water; conditions: for C 0: RP-TLC silica gel C8, C0 = −RM^0/b; for PC1: RP-TLC silica gel C8, first principal component of RM values, contains 83.57% of information; for mRM: RP-TLC silica gel C8, mean value of RM; for R M ^0: RP-TLC silica gel C8, methanol-water 30 to 70% (v/v), intercept of Soczewiński–Wachtmeister equation; for b: RP-TLC silica gel C8, slope of Soczewiński–Wachtmeister equation
Protocol: as §1, §2, §3, §4, §5

[3] = MEKC lipophilicity (SDS micelles, pH 7.4); conditions: 50 mM SDS, HEPES/TRIS buffer pH 7.4, 25 °C
Protocol: All MEKC experiments were carried out with a P/ACE MDQ plus system (Sciex, Framingham, MA, USA) equipped with photodiode array detector (PDA) and controlled by 32 Karat software (version 10.2). The uncoated fused silica capillaries (50 µm i.d., Polymicro Technologies, West Yorkshire, UK) of 60 cm total length and 50.2 cm effective length were used. Prior to analysis, the capillary was rinsed with 0.1 M NaOH for 30 min, ultrapure water for 10 min, and background electrolyte (BGE) for 30 min. After each analysis, the capillary was conditioned with BGE for 2 min. The applied pressure for all rinsing operations was 345 kPa. The analytes were dissolved in BGE at concentration of 100 µg/mL with addition of quinine (micelles marker). As electroosmotic flow (EOF) marker, DMSO was used. The samples were hydrodynamically injected at 35 kPa for 5 s. The separations were performed by applying voltage of 20 kV with positive polarity and constant temperatures at 25 ± 0.1 °C. The BGE consisted of aqueous solution of 50 mM SDS and 120 mM HEPES /100 mM TRIS buffer of pH 7.4. The BGE was prepared each working day by dilution of stock solution. Detection was carried out at 200 and 280 nm with 8 Hz probing frequency. The logarithm of retention factor logk was calculated according to the equation introduced by Terabe and co-workers:(10) logkMEKC=log(tR−tEOF/tEOF(1−tR/tMC)) The established logk parameters are summarized in Table 2.

| C 0 [1] | PC1 [1] | mRM [1] | R M ^0 [1] | b [1] | C 0 [2] | PC1 [2] | mRM [2] | R M ^0 [2] | b [2] | logk [3] | logk ([3]; listed as enoxacin) | Structure (SMILES) |
| --- | --- | --- | --- | --- | --- | --- | --- | --- | --- | --- | --- | --- |
| 0.98 | 1.75 | 0.81 | 1.86 | −1.91 | 0.97 | −0.11 | 0.79 | 1.62 | −1.66 | −0.479 | – | CCn1cc(C(=O)O)c(=O)c2cc(F)c(N3CC[N+]4(CN5C(C)=CC(C)=C(C(=O)O)C5=N4)C(C)C3)c(F)c21.[Cl-] (stereo not drawn) [Compound 9] |
| 1.08 | 1.51 | 0.84 | 1.72 | −1.59 | 1.06 | −0.54 | 0.84 | 1.59 | −1.50 | −0.398 | – | CCn1cc(C(=O)O)c(=O)c2cc(F)c(N3CC[N+]4(CC3)CN3C(C)=CC(C)=C(C(=O)O)C3=N4)nc21.[Cl-] [Compound 11] |
| 1.37 | −3.86 | 1.62 | 2.70 | −1.98 | 1.23 | −5.38 | 1.45 | 2.45 | −2.00 | 0.156 | 0.1564 | CCn1cc(C(=O)O)c(=O)c2cc(F)c(N3CCNCC3)nc21 [Compound 23, enoxacin, reference compound] |
| 1.00 | 1.97 | 0.78 | 1.75 | −1.75 | 1.00 | −0.38 | 0.82 | 1.63 | −1.63 | −0.272 | – | CCn1cc(C(=O)O)c(=O)c2cc(F)c(N3CC[N+]4(CC3)CN3C(C)=CC(C)=C(C(=O)O)C3=N4)cc21.[Cl-] [Compound 12] |

Further lines, the molecule ahead of its results:

| Structure (SMILES) | C 0 [1] | PC1 [1] | mRM [1] | R M ^0 [1] | b [1] | C 0 [2] | PC1 [2] | mRM [2] | R M ^0 [2] | b [2] | logk [3] | logk ([3]; listed as enoxacin) |
| --- | --- | --- | --- | --- | --- | --- | --- | --- | --- | --- | --- | --- |
| CCn1cc(C(=O)O)c(=O)c2cc(F)c(N3CC[N+]4(CN5C(=N4)C(C(=O)O)=Cc4ccccc45)C(C)C3)c(F)c21.[Cl-] (stereo not drawn) [Compound 5] | 0.93 | 0.88 | 0.94 | 2.29 | −2.45 | 1.04 | −1.69 | 0.98 | 1.90 | −1.83 | −0.265 | – |
| COc1c(N2CC[N+]3(CN4C(=N3)C(C(=O)O)=Cc3ccccc34)C(C)C2)c(F)cc2c(=O)c(C(=O)O)cn(C3CC3)c12.[Cl-] (stereo not drawn) [Compound 2] | 0.84 | 0.81 | 0.95 | 2.78 | −3.31 | 0.89 | −2.22 | 1.01 | 2.31 | −2.61 | −0.125 | – |
| CC1CN(c2c(F)c(N)c3c(=O)c(C(=O)O)cn(C4CC4)c3c2F)CC(C)[N+]12CN1C(=N2)C(C(=O)O)=Cc2ccccc21.[Cl-] (stereo not drawn) [Compound 3] | 0.88 | 0.34 | 1.02 | 2.75 | −3.13 | 0.86 | −3.48 | 1.15 | 2.74 | −3.17 | −0.070 | – |
